In brackets after ≈: the same amount, converted by molar mass. Bridge positions count the residues as written; N and C are the ends. Square brackets hold non-standard residues; d marks the D form. Peptide text beside a SMILES is read from it. R5 = C=CCCC[C@@](C)(N)C(=O)O
Key:
Salmonella enterica = test: microbe, parasite or virus in culture; assay type: cell-based; conditions: Salmonella enterica; MHB medium
In short: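 Inoculum 5 × 10^5 CFU/mL; peptide dilution series; 37 ± 2°C, 16–20 h; MIC = first clear well. Clear wells onto MHA, overnight 37 ± 2°C; MBC = no growth. Serum assay: 50% human serum in medium.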

Staphylococcus aureus = assay type: cell-based
Experimental: The antimicrobial assay was performed according to a modified National Committee for Clinical Laboratory Standards (NCCLS) protocol ([41], [42]). Briefly, 5 × 10^5 CFU/mL bacterial cells were treated with various peptide concentrations and incubated at 37 ± 2°C for 16 to 20 h. The lowest concentration with clear wells was recorded as the MIC for each test molecule. The clear wells were further plated in Mueller-Hinton agar (MHA) plates, followed by incubation overnight at 37 ± 2°C. After plating, the lowest concentration at which no growth was observed was recorded as the MBC. For the serum sensitivity assay, the antimicrobial activity of the peptides was tested in medium containing 50% human serum ([43], [44]).

human red blood cells = assay type: cell-based
In short: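 Healthy human blood as a 2% cell suspension in normal saline was mixed 1:1 with peptide at graded concentrations and held at 37 ± 2°C for 1 h. After centrifugation, supernatant absorbance at 540 nm gave percent hemolysis relative to controls.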

A. baumannii [1] = test: PI membrane permeabilization assay; assay type: cell-based, Acinetobacter baumannii; conditions: 25 μM, 10^8 CFU/mL
Experimental: Mid-log-phase bacterial cells (A. baumannii) were resuspended in 10 mM PBS (pH 7.4) to a density of 10^8 CFU/mL. The cell suspension was supplemented with 25 mM glucose followed by 15 min incubation at 37°C. After the incubation, N-phenyl-1-naphthylamine dye was added to a final concentration of 10 μM. Next, 90 μL of bacterial cells was transferred to a 96-well black plate, and fluorescence was recorded for 40 min (excitation/emission: 350/420 nm). […] After this treatment, fluorescence was recorded for an additional 20 min ([53]). Data are presented as fluorescence values as a function of time. Permeabilization of blank- and test compound-treated cells was compared. For the PI membrane permeabilization assay, 10^8 bacterial cells (A. baumannii) were resuspended in MHB containing 20 μg/mL PI. […] Fluorescence was read (excitation/emission: 584/620 nm). Fluorescence values of blank- and compound-treated cells were graphed as a function of time ([54], [55]).

A. baumannii [2] = test: SEM and TEM analysis; assay type: cell-based, Acinetobacter baumannii; conditions: 1× MIC
Experimental: The treated suspension was washed twice with 10 mM PBS (pH 7.4) followed by treatment with 4% glutaraldehyde. Next, the suspension was incubated for 30 min at 4°C. Following the incubation, the treated suspension was centrifuged (5,000 × g, 10 min), and the pellet was placed on a glass slide and allowed to attach for 30 min. The glass slide was then subjected to gradient ethanol washing from 0% to 100% ethanol. Finally, the glass slides were dried and coated with gold for imaging ([55]). For TEM, glutaraldehyde samples were cryoimmobilized and subjected to TEM imaging ([58], [59]).

[3] = system: human keratinocyte (HaCaT); test: alamarBlue cytotoxicity assay; assay type: cell-based; conditions: at 3.13 μM, 24 h
Experimental: (§1) (i) Cell culture. Human skin keratinocytes (HaCaT), human kidney (HK-2), and RAW 264.7 macrophage cells were obtained from the Bioresource Collection and Research Center (BCRC, Hsinchu, Taiwan). HaCaT and […] macrophage cells were cultured in Dulbecco’s modified Eagle’s medium (DMEM, Thermo Fischer, MA, USA.) supplemented with 10% FBS, penicillin (100 U/mL), and streptomycin (100 μg/mL) at 37°C under 5% CO2. HK-2 cells were cultured in glucose-free Keratinocyte serum-free medium (K-SFM) supplemented with 0.05 mg/mL bovine pituitary extract (BPE), 5 ng/mL EGF, 100 U/mL penicillin, and […] streptomycin at 37°C in 5% CO2 ([49]).
(§2) In vitro toxicity assay. The cytotoxicity of TP4-3 was evaluated by an alamarBlue assay. HaCaT, HK-2, and RAW 264.7 macrophage cells were seeded at densities of 1 × 10^4 cells/well in 96-well cell plates and treated with the indicated concentrations of TP4 and TP4-3 for 24 h (0.78 to 100 μM). Cells treated with 0.1% Triton X-100 and culture medium served as negative and positive-control groups, respectively. After incubation, the cells were washed and incubated for 2 h at 37°C with 90 μL Dulbecco’s modified Eagle medium (DMEM) containing 10 μL alamarBlue reagent. Fluorescence was recorded using a Spectra Max i3 Multi-Mode detection platform (Molecular Devices, San Jose, CA) to measure cell viability ([50], [51]).

human kidney cell (HK-2) = test: alamarBlue cytotoxicity assay; assay type: cell-based; conditions: at 3.13 μM, 24 h
Experimental: as §1, §2

female C57BL/6 mice = test: In vivo toxicity
Experimental: The in vivo toxicity of TP4-3 was assessed in female C57BL/6 mice (BioLasco, Ilan, Taiwan) upon intravenous administration of TP4-3 (9, 45, and 60 mg/kg). […] All animals were monitored for 7 days. The number of dead animals and animal body weights were measured every 24 h. Seven days after the drug administration, blood samples were collected, and the animals were euthanized. ALT (GPT), AST (GOT), CRE, and BUN were analyzed using a dry-chemistry analyzer (Fujifilm DRI-CHEM 4000i) and commercially available kits (Fujifilm Corp., Tokyo, Japan) ([23], [54]). All animal experiments were approved by the institutional ethical committee (IACUC, Academia Sinica; ID no. 2021-12-1577 and 2021-12-1771).

Row | SMILES | MBC (Salmonella enterica) [µM] | MIC (Salmonella enterica) [µM] | MBC (Staphylococcus aureus) [µM] | MIC (Staphylococcus aureus) [µM] | 15% hemolysis concn (human red blood cells) [µM] | PI fluorescence signal vs controls (A. baumannii [1]) | bacterial membrane architecture (SEM, TEM) (A. baumannii [2]) | cell death [3] [%] | cell death (human kidney cell (HK-2)) [%] | time to death after treatment (female C57BL/6 mice; 60 mg/kg i.v.) [min] | body weight (female C57BL/6 mice; i.v. 9 or 45 mg/kg, 7 days) | survival (female C57BL/6 mice; i.v. doses of 9 or 45 mg/kg, 7 days) | kidney (BUN, CRE) and liver (GOT, GPT) function markers (female C57BL/6 mice; i.v., TP4-3 up to 45 mg/kg, meropenem 10 mg/kg, day 7)
1 | C[C@@H](O)[C@H]1C(=O)N2C(C(=O)O)=C(S[C@@H]3CN[C@H](C(=O)N(C)C)C3)[C@H](C)[C@H]12 [Meropenem] | 6.25 (≈ 2.4 µg/mL) | 3.13 to 6.25 (≈ 1.2 to 2.4 µg/mL) | – | – | – | – | – | – | – | – | – | – | –
2 | CC[C@H](C)[C@H](NC(=O)[C@@H](NC(=O)[C@@H](N)Cc1ccccc1)[C@@H](C)CC)C(=O)N[C@]1(C)CCCC=CCCC[C@](C)(C(=O)NCC(=O)N[C@@H](CC(C)C)C(=O)N[C@@H](Cc2ccccc2)C(=O)N[C@@H](CCCCN)C(=O)N[C@@H](CCCCN)C(=O)N[C@@H](CCCCN)C(=O)N[C@@H](C)C(=O)NCC(=O)N[C@@H](C)C(=O)N[C@]2(C)CCCC=CCCC[C@](C)(C(=O)N[C@H](C(=O)N[C@@H](CCCCN)C(=O)N[C@@H](CCCCN)C(=O)O)[C@@H](C)CC)NC(=O)[C@H](CCCCN)NC(=O)[C@H](CCCCN)NC(=O)[C@H](CCCCN)NC2=O)NC(=O)[C@H](CO)NC(=O)[C@H](CCCCN)NC(=O)[C@H](CCCCN)NC1=O [TP4-3] (H-FII[R5]KKS[R5]GLFKKKAGA[R5]KKK[R5]IKK-OH; staple 4-8, 18-22; N-terminus and C-terminus assumed) | – | – | >25 | >25 | >100 | approximately 3 fold | significant membrane deformation | < 10 | < 10 | ≤ 10 | No significant changes in body weight | All treated animals survived | no obvious effects

From paper PMC10101059, “Rational Design of Stapled Antimicrobial Peptides to Enhance Stability and In Vivo Potency against Polymicrobial Sepsis” (Microbiology Spectrum, 2023)
